Measurements reported in the OligoGym collection.
Values joined by “and” are separate entries in the source; they are usually repeats but may differ in a detail not shown here. Equal values may be shown once. After the bases stand the sugars from the 5' end (letter, count) and the backbone: PS all phosphorothioate, else s phosphorothioate and o phosphodiester by linkage. Methylation of C is not given here. k = constrained ethyl (cEt); d = 2'-deoxy (DNA)

Molecular target: MALAT1
Details: ASO, A431, 0.005 µM

Row | Sequence | target mRNA inhibition
1 | GCTTACAGATTTGCTG (sugars k3 d10 k3, PS) | 8%
2 | GCTTATGGAACTTGAA (sugars k3 d10 k3, PS) | 10%
3 | GCTTGGGAAATCTTAG (sugars k3 d10 k3, PS) | 7%
4 | GCTTTAAATGACGCAA (sugars k3 d10 k3, PS) | -22%
5 | GGAAGATTAAAGTGTG (sugars k3 d10 k3, PS) | 21%
6 | GGACAGCTAAGATAGC (sugars k3 d10 k3, PS) | 22%
7 | GGACGGTTGAGAAGTG (sugars k3 d10 k3, PS) | -4%
8 | GGAGGCAAAAAGTAGT (sugars k3 d10 k3, PS) | 9%
9 | GGAGTTACTTGCCAAC (sugars k3 d10 k3, PS) | 24%
10 | GGAGTTGAGGCAAGTC (sugars k3 d10 k3, PS) | 41%
11 | GGATTAATGTAGTGTA (sugars k3 d10 k3, PS) | 86% and 96%
12 | GGATTTGAACCCCGTC (sugars k3 d10 k3, PS) | 30%
13 | GGCAAAAAGTAGTTCT (sugars k3 d10 k3, PS) | 31%
14 | GGCAAATTAATGGCCT (sugars k3 d10 k3, PS) | 25%
15 | GGCCGTTGGCTGCCAG (sugars k3 d10 k3, PS) | 21%
16 | GGCCTTTTAAAGTAGA (sugars k3 d10 k3, PS) | 28%
17 | GGCGGACTTTCTCCCC (sugars k3 d10 k3, PS) | -17%
18 | GGCTGACACTTCTCTT (sugars k3 d10 k3, PS) | 52% and 64%
19 | GGGAATACTCTTCCAA (sugars k3 d10 k3, PS) | 14%

Row | Sequence | target mRNA inhibition
20 | GGGACGGTTGAGAAGT (sugars k3 d10 k3, PS) | 7%
21 | GGGAGTTACTTGCCAA (sugars k3 d10 k3, PS) | 10%
22 | GGGAGTTGAGGCAAGT (sugars k3 d10 k3, PS) | 6%
23 | GGTAATTACTCTTGAT (sugars k3 d10 k3, PS) | 50%
24 | GGTCTAGGATCCTCTA (sugars k3 d10 k3, PS) | 23%
25 | GGTGAATTCAACTGGA (sugars k3 d10 k3, PS) | 49%
26 | GGTTAGGTATGAGCTT (sugars k3 d10 k3, PS) | 8%
27 | GGTTATAGCTTGACAA (sugars k3 d10 k3, PS) | 78% and 95%
28 | GGTTTAAGTTGGTTTT (sugars k3 d10 k3, PS) | 90% and 97%
29 | GGTTTTAATACCCTTC (sugars k3 d10 k3, PS) | 51%
30 | GTAAAAACAGGTCATC (sugars k3 d10 k3, PS) | 21%
31 | GTAAACCTGTGGTGGT (sugars k3 d10 k3, PS) | 56% and 60%
32 | GTAACCTATTGACTAT (sugars k3 d10 k3, PS) | 33%
33 | GTACATTTTGCCCTTA (sugars k3 d10 k3, PS) | 64% and 45%
34 | GTACGAAACTCCCCCA (sugars k3 d10 k3, PS) | 38%
35 | GTAGATTCCGTAACTT (sugars k3 d10 k3, PS) | 73% and 54% and 50%
36 | GTATTACTCTAATCAC (sugars k3 d10 k3, PS) | 34%
37 | GTATTATAATAGAGCT (sugars k3 d10 k3, PS) | 4%
38 | GTCAAGACAACTGCAT (sugars k3 d10 k3, PS) | 3%

Row | Sequence | target mRNA inhibition
39 | GTCAAGCTCCTGACAA (sugars k3 d10 k3, PS) | 33%
40 | GTCACTGGATAAGTAT (sugars k3 d10 k3, PS) | 48%
41 | GTCTACAAGTTACATG (sugars k3 d10 k3, PS) | 13%
42 | GTCTCATACACTCACT (sugars k3 d10 k3, PS) | -4%
43 | GTCTTAGCAGAGAATT (sugars k3 d10 k3, PS) | 47%
44 | GTGAATTCAACTGGAA (sugars k3 d10 k3, PS) | 50%
45 | GTGGCCTTTTAAAGTA (sugars k3 d10 k3, PS) | 15%
46 | GTGTAGCACCTGGGTC (sugars k3 d10 k3, PS) | 64% and 46%
47 | GTGTGATAGTTCAGGG (sugars k3 d10 k3, PS) | 8%
48 | GTTAACAATTTGCAGG (sugars k3 d10 k3, PS) | 40%
49 | GTTACACCTTGAGTCA (sugars k3 d10 k3, PS) | 53%
50 | GTTACCATAAGTAAGT (sugars k3 d10 k3, PS) | 2%
51 | GTTACTCCAGCATAAA (sugars k3 d10 k3, PS) | 0%
52 | GTTATGACTCAGAAGA (sugars k3 d10 k3, PS) | 26%
53 | GTTCGCAGACAAAGTT (sugars k3 d10 k3, PS) | 36%
54 | GTTGAGGCAAGTCCTC (sugars k3 d10 k3, PS) | 3%
55 | GTTTTATCTAAATACC (sugars k3 d10 k3, PS) | 29%
56 | TAAAAGATCGCCTTCA (sugars k3 d10 k3, PS) | 41%
57 | TAAACGGGTCATCAAA (sugars k3 d10 k3, PS) | 34%
